Assay results published in US10688047B2, “Physically and chemically stable oral suspensions of givinostat” (ITALFARMACO SPA, priority 2015, dated 2020).
Values after ≈ are worked out from the molar mass of the structure shown. Like-named read-outs stand apart in the source and are kept apart here. Each block holds one compound with its values, some of them ahead of it.

What was measured:
[1] = Solubility of Givinostat (ITF2357) in water, buffers and aqueous vehicles; format: physicochemical
Protocol: Solubility of Givinostat was tested in aqueous vehicles at pH 6, containing Phosphate buffer. Tween 20 as wetting agent and either Sorbitol or Sucrose (40% w/v). To this aim, an amount of Givinostat sufficient to ensure saturation was mixed with 15 mL of each vehicle in separate vials. These vials were shaken at 25° C.±PC for at least 24 hours in order to obtain equilibrium. The saturated solution was then separated from the excess solid by filtration and Givinostat (ITF2357) was quantitated in the filtrate by UV-Vis spectrophotometric technique.
In table 4 solubility value determined on ITF 2357 saturated solution in different buffer at pH 4.5 are reported.
Solubility of ITF2357 determined in suspension vehicles having compositions as described in Example 1, thus containing Sorbitol at 40% w/v and Tartrate buffer, at different pH (pH range from 4 to 7 adjusted with Tartaric Acid or Sodium Hydroxide) are shown in Table 5.

[2] = Chemical stability of ITF2357 solutions (degradation on storage); format: physicochemical
Protocol: For example, solubility of ITF2357 in phosphate buffers at pH 2, 4.5, 6 and 8 is about 1.13-2.88-0.77 and 0.05 mg/mL respectively. Thus, it is technically possible to prepare aqueous solutions of ITF2357, having concentrations, e.g., between 0.02 and 0.3% w/v, intended for oral administration. However, because of the poor Givinostat solubility, large volume of an oral solution formulation would need to be administered to allow administration of effective drug doses and this pose patient compliance issues. […] In a preferred embodiment, the suspension according to the invention further comprising at least a buffering agent.

IL-1β = conditions: LPS-stimulated cultured human PBMCs; read-out: concentration reducing by 50% the release of intracellular interleukin IL-1β; cited from earlier work
interferon-γ (IFNγ) = conditions: LPS-stimulated cultured human PBMCs; read-out: concentration reducing by 50% the production of IFNγ; cited from earlier work
serum TNFα = conditions: mice, oral administration of 1.0 to 10 mg/kg; cited from earlier work
serum IFNγ = conditions: mice, oral administration of 1.0 to 10 mg/kg; cited from earlier work
[3] = Solubility of Givinostat (ITF2357) in water, buffers and aqueous vehicles; format: physicochemical; conditions: phosphate buffer
[4] = at 20° C.; cited from earlier work

solubility ([1]; acetate buffer, pH 4.5, aqueous buffer, thermodynamic from solid, Acetate buffer pH 4.5, read-out: ITF2357 solubility): 5100 µg/mL (≈ 12100 µM)
solubility ([1]; aqueous vehicle, 25 °C, pH 6, aqueous with cosolvent or surfactant or cyclodextrin, thermodynamic from solid, Phosphate buffer pH 6, Tween 20, Sorbitol 10% (w/v), 25° C., read-out: ITF2357 Solubility): 2340 µg/mL (≈ 5550 µM)
solubility ([1]; aqueous vehicle, 25 °C, pH 6, aqueous with cosolvent or surfactant or cyclodextrin, thermodynamic from solid, Phosphate buffer pH 6, Tween 20, Sorbitol 20% (w/v), 25° C., read-out: ITF2357 Solubility): 2110 µg/mL (≈ 5000 µM)
solubility ([1]; aqueous vehicle, 25 °C, pH 6, aqueous with cosolvent or surfactant or cyclodextrin, thermodynamic from solid, Phosphate buffer pH 6, Tween 20, Sorbitol 30% (w/v), 25° C., read-out: ITF2357 Solubility): 2020 µg/mL (≈ 4790 µM)
solubility ([1]; aqueous vehicle, 25 °C, pH 6, aqueous with cosolvent or surfactant or cyclodextrin, thermodynamic from solid, Phosphate buffer pH 6, Tween 20, Sorbitol 40% (w/v), 25° C., read-out: ITF2357 Solubility): 1930 µg/mL (≈ 4580 µM)
solubility ([1]; aqueous vehicle, 25 °C, pH 6, aqueous with cosolvent or surfactant or cyclodextrin, thermodynamic from solid, Phosphate buffer pH 6, Tween 20, Sucrose 40% (w/v), 25° C., read-out: ITF2357 Solubility): 3880 µg/mL (≈ 9190 µM)
solubility ([1]; phosphate buffer pH 4.5): 2880 µg/mL (≈ 6830 µM)
solubility ([1]; phosphate buffer, pH 4.5, aqueous buffer, thermodynamic from solid, phosphate buffer pH 4.5, read-out: solubility): ~2880 µg/mL (≈ 6830 µM)
solubility ([1]; phosphate buffer, pH 8, aqueous buffer, phosphate buffer pH 8, read-out: solubility): ~50 µg/mL (≈ 119 µM)
solubility ([1]; purified water, water, purified water, read-out: solubility): ~2500 µg/mL (≈ 5930 µM)
solubility ([1]; suspension vehicle, pH 4, aqueous with cosolvent or surfactant or cyclodextrin, thermodynamic from solid, Tartrate buffer pH = 4.0, Tween 20, Sorbitol 40% w/v, read-out: ITF2357 solubility): 210 µg/mL (≈ 498 µM)
solubility ([1]; suspension vehicle, pH 5, aqueous with cosolvent or surfactant or cyclodextrin, thermodynamic from solid, Tartrate buffer pH = 5.0, Tween 20, Sorbitol 40% w/v, read-out: ITF2357 solubility): 150 µg/mL (≈ 356 µM)
solubility ([1]; suspension vehicle, pH 5.5, aqueous with cosolvent or surfactant or cyclodextrin, thermodynamic from solid, Tartrate buffer pH = 5.5, Tween 20, Sorbitol 40% w/v, read-out: ITF2357 solubility): 160 µg/mL (≈ 380 µM)
solubility ([1]; suspension vehicle, pH 6, aqueous with cosolvent or surfactant or cyclodextrin, thermodynamic from solid, Tartrate buffer pH = 6.0, Tween 20, Sorbitol 40% w/v, read-out: ITF2357 solubility): 150 µg/mL (≈ 356 µM)
solubility ([1]; suspension vehicle, pH 6.5, aqueous with cosolvent or surfactant or cyclodextrin, thermodynamic from solid, Tartrate buffer pH = 6.5, Tween 20, Sorbitol 40% w/v, read-out: ITF2357 solubility): 160 µg/mL (≈ 380 µM)
solubility ([1]; suspension vehicle, pH 7, aqueous with cosolvent or surfactant or cyclodextrin, thermodynamic from solid, Tartrate buffer pH = 7.0, Tween 20, Sorbitol 40% w/v, read-out: ITF2357 solubility): 150 µg/mL (≈ 356 µM)
solubility ([1]; tartrate buffer, pH 4.5, aqueous buffer, thermodynamic from solid, Tartrate buffer pH 4.5, read-out: ITF2357 solubility): 230 µg/mL (≈ 546 µM)
degradation of solution ([2]; phosphate buffer pH 2, 6 days at 40° C.): about 6.3%
degradation of solution ([2]; phosphate buffer pH 4.5, 6 days at 40° C.): ~0.8%
degradation of solution ([2]; phosphate buffer pH 6, 6 days at 40° C.): ~0.5%
degradation of solution ([2]; phosphate buffer pH 8, 6 days at 40° C.): ~2.1%
solubility ([3]; pH 2, aqueous buffer, phosphate buffer pH 2): ~1130 µg/mL (≈ 2680 µM)
solubility ([3]; pH 6, aqueous buffer, phosphate buffer pH 6): ~770 µg/mL (≈ 1830 µM)
Compound: CCN(CC)Cc1ccc2cc(COC(=O)Nc3ccc(C(=O)NO)cc3)ccc2c1 [ITF2357, Givinostat]
IC50 (IL-1β): 12 nM
IC50 (interferon-γ (IFNγ)): 25 nM
reduction of LPS-induced serum TNFα (serum TNFα): more than 50%
reduction of LPS-induced serum IFNγ (serum IFNγ): more than 50%

Compound: OC[C@H]1O[C@@](CO)(O[C@H]2O[C@H](CO)[C@@H](O)[C@H](O)[C@H]2O)[C@@H](O)[C@@H]1O [Sucrose]
parts of water in which 1 part dissolves [4]: 0.3 parts of water
